Results taken from US9981975B2, “Pyrrolotriazine compounds as tam inhibitors” (Incyte Corporation, priority 2016, dated 2018).
pIC50: −log10 of the molar value.

What was measured:
Format in all cases: biochemical
c-Mer = c-Mer (Homo sapiens (Human), UniProt Q12866); assay: TAM Enzymatic Assay (HTRF), Mer; details: 60 min, room temperature
Method: (§1) The kinase assay buffer contained 50 mM HEPES, pH7.5, 10 mM MgCl2, 1 mM EGTA, 0.01% NP-40 and 2 mM DTT. 0.1 ul test compounds dissolved in DMSO were transferred from compound plates to white 384-well assay plates (Greiner […] plates). […] 4 ul enzyme solution (or assay buffer for the enzyme blank) was added to the appropriate wells in each plate, and then 4 ul/well substrate solution was added to initiate the reaction. The plate was protected from light and incubated at room temperature for 60 min. […] The plate was incubated for 1 h at room temperature, and HTRF (homogenous time resolved fluorescence) signal was measured on a PHERAstar FS plate reader (BMG labtech). Percentage of inhibition was calculated for each concentration and IC50 value was generated from curve fitting with GraphPad Prism software.

Tyro3 = Tyro3 (Homo sapiens (Human), UniProt Q06418); assay: TAM Enzymatic Assay (HTRF), Tyro3; details: Tyro3, 60 min, room temperature
Method: as §1

phosphor-Axl = phosphor-Axl (Homo sapiens (Human), UniProt P30530); assay: TAM Enzymatic Assay (HTRF), Axl; details: recombinant autophosphorylated Axl, 60 min, room temperature
Method: Autophosphorylation of Axl was carried out by incubating the recombinant Axl protein (Life Technologies, PV4275) in buffer containing 50 mM Tris, pH7.5, 0.2 mg/ml Axl, 5 mM ATP, 20 mM MgCl2 and 2 mM DTT at room temperature for 1 hour.
as §1

Sequence of c-Mer (Q12866 21-999): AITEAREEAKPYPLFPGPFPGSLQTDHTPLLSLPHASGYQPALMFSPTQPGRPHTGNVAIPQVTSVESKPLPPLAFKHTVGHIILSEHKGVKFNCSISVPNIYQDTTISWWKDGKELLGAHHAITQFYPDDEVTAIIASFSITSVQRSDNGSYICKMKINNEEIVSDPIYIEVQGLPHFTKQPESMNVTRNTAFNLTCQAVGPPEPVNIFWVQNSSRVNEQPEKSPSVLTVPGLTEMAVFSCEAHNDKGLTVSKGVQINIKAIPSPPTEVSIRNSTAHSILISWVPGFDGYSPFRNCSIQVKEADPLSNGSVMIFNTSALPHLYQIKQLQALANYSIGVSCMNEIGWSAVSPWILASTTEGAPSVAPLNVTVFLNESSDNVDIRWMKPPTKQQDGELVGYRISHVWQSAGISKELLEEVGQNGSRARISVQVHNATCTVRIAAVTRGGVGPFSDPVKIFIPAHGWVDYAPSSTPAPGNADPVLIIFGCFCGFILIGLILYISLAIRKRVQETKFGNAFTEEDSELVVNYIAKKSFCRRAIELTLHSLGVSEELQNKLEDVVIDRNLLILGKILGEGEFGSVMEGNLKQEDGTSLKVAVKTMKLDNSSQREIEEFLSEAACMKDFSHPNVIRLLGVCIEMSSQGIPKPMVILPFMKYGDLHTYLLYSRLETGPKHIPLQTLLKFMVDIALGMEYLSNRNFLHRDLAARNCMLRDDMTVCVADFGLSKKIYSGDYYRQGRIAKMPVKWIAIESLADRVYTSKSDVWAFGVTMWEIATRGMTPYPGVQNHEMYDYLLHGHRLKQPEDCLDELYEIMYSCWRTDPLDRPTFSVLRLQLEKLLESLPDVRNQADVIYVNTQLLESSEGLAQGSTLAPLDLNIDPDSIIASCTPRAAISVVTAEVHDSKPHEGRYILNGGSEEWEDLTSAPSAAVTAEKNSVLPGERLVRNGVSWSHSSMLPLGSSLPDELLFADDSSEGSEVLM
Sequence of Tyro3 (Q06418 41-890): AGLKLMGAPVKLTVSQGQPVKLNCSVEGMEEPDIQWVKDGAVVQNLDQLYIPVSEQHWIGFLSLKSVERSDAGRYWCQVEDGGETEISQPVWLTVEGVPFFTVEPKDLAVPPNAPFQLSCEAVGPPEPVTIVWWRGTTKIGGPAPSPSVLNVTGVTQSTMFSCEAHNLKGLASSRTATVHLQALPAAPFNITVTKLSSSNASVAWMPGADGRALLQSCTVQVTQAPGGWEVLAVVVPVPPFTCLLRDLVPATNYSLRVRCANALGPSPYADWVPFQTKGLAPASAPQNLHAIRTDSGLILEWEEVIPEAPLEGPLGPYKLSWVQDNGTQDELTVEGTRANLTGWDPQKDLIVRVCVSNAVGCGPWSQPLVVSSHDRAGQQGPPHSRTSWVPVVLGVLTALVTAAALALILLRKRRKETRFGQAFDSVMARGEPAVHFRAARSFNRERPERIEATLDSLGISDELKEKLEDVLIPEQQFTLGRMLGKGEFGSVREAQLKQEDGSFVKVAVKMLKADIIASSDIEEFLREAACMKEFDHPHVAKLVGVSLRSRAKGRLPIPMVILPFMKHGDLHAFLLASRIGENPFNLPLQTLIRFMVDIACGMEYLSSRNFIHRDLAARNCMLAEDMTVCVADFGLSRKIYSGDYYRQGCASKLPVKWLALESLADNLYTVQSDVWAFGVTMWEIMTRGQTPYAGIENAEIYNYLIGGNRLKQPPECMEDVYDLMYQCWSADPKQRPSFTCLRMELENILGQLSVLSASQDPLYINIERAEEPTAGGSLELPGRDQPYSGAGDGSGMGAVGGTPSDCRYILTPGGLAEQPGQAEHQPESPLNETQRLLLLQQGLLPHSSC
Sequence of phosphor-Axl (P30530 26-894): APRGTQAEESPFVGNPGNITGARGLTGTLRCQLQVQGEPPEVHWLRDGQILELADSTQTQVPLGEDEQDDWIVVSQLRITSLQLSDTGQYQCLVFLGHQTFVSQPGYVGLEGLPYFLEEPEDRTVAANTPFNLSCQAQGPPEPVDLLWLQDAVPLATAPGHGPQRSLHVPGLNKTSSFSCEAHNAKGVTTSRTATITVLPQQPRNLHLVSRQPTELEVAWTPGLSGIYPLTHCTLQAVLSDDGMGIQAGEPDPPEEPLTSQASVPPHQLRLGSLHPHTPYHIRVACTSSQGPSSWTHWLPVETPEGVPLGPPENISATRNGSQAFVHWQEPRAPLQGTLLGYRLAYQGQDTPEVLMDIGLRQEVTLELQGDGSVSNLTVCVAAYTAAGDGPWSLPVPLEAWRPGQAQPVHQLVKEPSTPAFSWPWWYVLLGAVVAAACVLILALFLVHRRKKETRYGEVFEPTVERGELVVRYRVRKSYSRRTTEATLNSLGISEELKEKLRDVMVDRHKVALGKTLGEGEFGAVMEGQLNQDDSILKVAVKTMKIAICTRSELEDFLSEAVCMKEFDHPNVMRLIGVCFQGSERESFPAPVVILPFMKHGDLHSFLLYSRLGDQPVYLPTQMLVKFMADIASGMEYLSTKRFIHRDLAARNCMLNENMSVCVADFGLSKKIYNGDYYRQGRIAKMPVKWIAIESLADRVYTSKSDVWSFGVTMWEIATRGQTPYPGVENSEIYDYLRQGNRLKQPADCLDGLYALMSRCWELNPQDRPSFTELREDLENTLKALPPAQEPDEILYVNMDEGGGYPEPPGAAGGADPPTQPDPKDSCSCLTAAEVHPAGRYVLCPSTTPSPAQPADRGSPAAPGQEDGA

Structure (SMILES)	pIC50 (c-Mer)	pIC50 (Tyro3)	pIC50 (phosphor-Axl)
COCCN1CCC(c2cc(-c3ccc(NC(=O)c4cccn(-c5ccc(F)cc5)c4=O)cc3F)c3c(N)ncnn23)CC1 [Example 51, N-(4-{4-Amino-7-[1-(2-methoxyethyl)piperidin-4-yl]pyrrolo[2,1-f][1,2,4]triazin-5-yl}-3-fluorophenyl)-1-(4-fluorophenyl)-2-oxo-1,2-dihydropyridine-3-carboxamide]	≥ 8.30	8.00 to 8.30	≥ 8.30
CC(=O)N1CCC(c2cc(-c3ccc(NC(=O)c4cccn(-c5ccc(F)cc5)c4=O)cc3)c3c(N)ncnn23)CC1 [Example 25, N-{4-[7-(1-Acetylpiperidin-4-yl)-4-aminopyrrolo[2,1-f][1,2,4]triazin-5-yl]phenyl}-1-(4-fluorophenyl)-2-oxo-1,2-dihydropyridine-3-carboxamide]	≥ 8.30	7.00 to 8.00	≥ 8.30
Cc1cc(C(=O)Nc2ccc(-c3cc(C4CCN(C(=O)C(C)C)CC4)n4ncnc(N)c34)cc2)c(=O)n(-c2cncc(F)c2)c1C [Example 121, N-(4-(4-Amino-7-(1-isobutyrylpiperidin-4-yl)pyrrolo[2,1-f][1,2,4]triazin-5-yl)phenyl)-5′-fluoro-5,6-dimethyl-2-oxo-2H-[1,3′-bipyridine]-3-carboxamide]	≥ 8.30	< 7.00	≥ 8.30
CC(C)C(=O)N1CCC(c2cc(-c3ccc(NC(=O)c4cn(C(C)C)c(=O)n(-c5ccccc5)c4=O)cc3F)c3c(N)ncnn23)CC1 [Example 75, N-(4-(4-Amino-7-(1-isobutyrylpiperidin-4-yl)pyrrolo[1,2-f][1,2,4]triazin-5-yl)-3-fluorophenyl)-1-isopropyl-2,4-dioxo-3-phenyl-1,2,3,4-tetrahydropyrimidine-5-carboxamide]	≥ 8.30	7.00 to 8.00	≥ 8.30
Cc1cc(C(=O)Nc2ccc(-c3cc(C4CCN(C(=O)C(C)C)CC4)n4ncnc(N)c34)cc2)c(=O)n(-c2cccnc2)c1C [Example 132, N-(4-(4-Amino-7-(1-isobutyrylpiperidin-4-yl)pyrrolo[2,1-f][1,2,4]triazin-5-yl)phenyl)-5,6-dimethyl-2-oxo-2H-[1,3′-bipyridine]-3-carboxamide]	≥ 8.30	< 7.00	≥ 8.30
CC(=O)N1CCC(c2cc(-c3ccc(NC(=O)c4cccn(-c5ccccc5)c4=O)cc3)c3c(N)ncnn23)CC1 [Example 24, N-{4-[7-(1-Acetylpiperidin-4-yl)-4-aminopyrrolo[2,1-f][1,2,4]triazin-5-yl]phenyl}-2-oxo-1-phenyl-1,2-dihydropyridine-3-carboxamide]	≥ 8.30	7.00 to 8.00	≥ 8.30
Nc1ncnn2c1c(-c1ccc(NC(=O)c3cccn(-c4ccc(F)cc4)c3=O)cc1)cc2[C@H]1CC[C@@H](O)CC1 [Example 17, N-{4-[4-Amino-7-(cis-4-hydroxycyclohexyl)pyrrolo[2,1-f][1,2,4]triazin-5-yl]phenyl}-1-(4-fluorophenyl)-2-oxo-1,2-dihydropyridine-3-carboxamide]	≥ 8.30	–	≥ 8.30
CN1CCC(c2cc(-c3ccc(NC(=O)c4cccn(-c5ccc(F)cc5)c4=O)cc3)c3c(N)ncnn23)CC1 [Example 21, N-{4-[4-Amino-7-(1-methylpiperidin-4-yl)pyrrolo[2,1-f][1,2,4]triazin-5-yl]phenyl}-1-(4-fluorophenyl)-2-oxo-1,2-dihydropyridine-3-carboxamide]	≥ 8.30	–	–
Nc1ncnn2c(C3CCOCC3)cc(-c3ccc(NC(=O)c4cccn(-c5ccccc5)c4=O)cc3F)c12 [Example 15, N-{4-[4-Amino-7-(tetrahydro-2H-pyran-4-yl)pyrrolo[2,1-f][1,2,4]triazin-5-yl]-3-fluorophenyl}-2-oxo-1-phenyl-1,2-dihydropyridine-3-carboxamide]	≥ 8.30	–	≥ 8.30
CC(C)C(=O)N1CCC(c2cc(-c3ccc(NC(=O)c4cn(C(C)C)cc(-c5cccnc5)c4=O)cc3)c3c(N)ncnn23)CC1 [Example 128, N-(4-(4-Amino-7-(1-isobutyrylpiperidin-4-yl)pyrrolo[1,2-f][1,2,4]triazin-5-yl)phenyl)-1-isopropyl-4-oxo-5-(pyridin-3-yl)-1,4-dihydropyridine-3-carboxamide]	–	< 7.00	≥ 8.30
CCc1cc(-c2ccc(NC(=O)c3cccn(-c4ccccc4)c3=O)cc2F)c2c(N)ncnn12 [Example 12, N-[4-(4-Amino-7-ethylpyrrolo[2,1-f][1,2,4]triazin-5-yl)-3-fluorophenyl]-2-oxo-1-phenyl-1,2-dihydropyridine-3-carboxamide]	≥ 8.30	< 7.00	–
Nc1ncnn2c(C3CCN(CCO)CC3)cc(-c3ccc(NC(=O)c4cc5c(n(-c6ccc(F)cc6)c4=O)CCCC5=O)cc3)c12 [Example 59, N-(4-{4-Amino-7-[1-(2-hydroxyethyl)piperidin-4-yl]pyrrolo[2,1-f][1,2,4]triazin-5-yl}phenyl)-1-(4-fluorophenyl)-2,5-dioxo-1,2,5,6,7,8-hexahydroquinoline-3-carboxamide]	–	< 7.00	≥ 8.30
Cc1c(Cl)cc(C(=O)Nc2ccc(-c3cc(C4CCN(C(=O)C(C)C)CC4)n4ncnc(N)c34)cc2)c(=O)n1-c1ccccn1 [Example 124, N-(4-(4-Amino-7-(1-isobutyrylpiperidin-4-yl)pyrrolo[2,1-f][1,2,4]triazin-5-yl)phenyl)-5-chloro-6-methyl-2-oxo-2H-[1,2′-bipyridine]-3-carboxamide]	–	< 7.00	≥ 8.30
CC(C)C(=O)N1CCC(c2cc(-c3ccc(NC(=O)c4cn(C(C)C)c(=O)n(-c5cccc(C#N)c5)c4=O)cc3)c3c(N)ncnn23)CC1 [Example 91, N-(4-(4-Amino-7-(1-isobutyrylpiperidin-4-yl)pyrrolo[2,1-f][1,2,4]triazin-5-yl)phenyl)-3-(3-cyanophenyl)-1-isopropyl-2,4-dioxo-1,2,3,4-tetrahydropyrimidine-5-carboxamide]	–	< 7.00	≥ 8.30
Nc1ncnn2c1c(-c1ccc(NC(=O)c3cccn(-c4ccccc4)c3=O)cc1F)cc2[C@H]1CC[C@@H](O)CC1 [Example 18, N-{4-[4-Amino-7-(cis-4-hydroxycyclohexyl)pyrrolo[2,1-f][1,2,4]triazin-5-yl]-3-fluorophenyl}-2-oxo-1-phenyl-1,2-dihydropyridine-3-carboxamide]	≥ 8.30	–	≥ 8.30
CC(C)C(=O)N1CCC(c2cc(-c3ccc(NC(=O)c4cn(C5CC5)c(=O)n(-c5cccnc5)c4=O)cc3)c3c(N)ncnn23)CC1 [Example 140, N-(4-(4-Amino-7-(1-isobutyrylpiperidin-4-yl)pyrrolo[2,1-f][1,2,4]triazin-5-yl)phenyl)-1-cyclopropyl-2,4-dioxo-3-(pyridin-3-yl)-1,2,3,4-tetrahydropyrimidine-5-carboxamide]	–	< 7.00	≥ 8.30
Nc1ncnn2c1c(-c1ccc(NC(=O)c3cccn(-c4ccccc4)c3=O)cc1)cc2[C@H]1CC[C@H](O)CC1 [7 (trans isomer), N-{4-[4-Amino-7-(trans-4-hydroxycyclohexyl)pyrrolo[2,1-f][1,2,4]triazin-5-yl]phenyl}-2-oxo-1-phenyl-1,2-dihydropyridine-3-carboxamide]	≥ 8.30	–	–
Nc1ncnn2c1c(-c1ccc(NC(=O)c3cccn(-c4ccccc4)c3=O)cc1)cc2[C@H]1CC[C@@H](O)CC1 [7 (cis isomer), N-{4-[4-Amino-7-(cis-4-hydroxycyclohexyl)pyrrolo[2,1-f][1,2,4]triazin-5-yl]phenyl}-2-oxo-1-phenyl-1,2-dihydropyridine-3-carboxamide]	≥ 8.30	–	–
Cc1c(-c2ccnn2C)cc(C(=O)Nc2ccc(-c3cc(C4CCN(C(=O)C(C)C)CC4)n4ncnc(N)c34)cc2)c(=O)n1-c1ccccn1 [Example 123, N-(4-(4-Amino-7-(1-isobutyrylpiperidin-4-yl)pyrrolo[2,1-f][1,2,4]triazin-5-yl)phenyl)-6-methyl-5-(1-methyl-1H-pyrazol-5-yl)-2-oxo-2H-[1,2′-bipyridine]-3-carboxamide]	–	< 7.00	≥ 8.30
CC(C)n1cc(C(=O)Nc2ccc(-c3cc(C4CN(C(=O)C5CC5)C4)n4ncnc(N)c34)cc2)c(=O)n(-c2ccccc2)c1=O [Example 94, N-(4-(4-amino-7-(1-(cyclopropanecarbonyl)azetidin-3-yl)pyrrolo[2,1-f][1,2,4]triazin-5-yl)phenyl)-1-isopropyl-2,4-dioxo-3-phenyl-1,2,3,4-tetrahydropyrimidine-5-carboxamide]	–	< 7.00	≥ 8.30
CC(C)C(=O)N1CCC(c2cc(-c3ccc(NC(=O)c4ccc(-c5ccccn5)n(-c5ccccc5)c4=O)cc3)c3c(N)ncnn23)CC1 [Example 104, N-(4-(4-Amino-7-(1-isobutyrylpiperidin-4-yl)pyrrolo[2,1-f][1,2,4]triazin-5-yl)phenyl)-6-oxo-1-phenyl-1,6-dihydro-[2,2′-bipyridine]-5-carboxamide]	≥ 8.30	–	≥ 8.30
Nc1ncnn2c(C3CCN(CCO)CC3)cc(-c3ccc(NC(=O)c4cccn(-c5ccc(F)cc5)c4=O)cc3)c12 [Example 53, N-(4-{4-Amino-7-[1-(2-hydroxyethyl)piperidin-4-yl]pyrrolo[2,1-f][1,2,4]triazin-5-yl}phenyl)-1-(4-fluorophenyl)-2-oxo-1,2-dihydropyridine-3-carboxamide]	≥ 8.30	–	–
